Measurements published in paper PMC8151276, “An Integrated Approach toward NanoBRET Tracers for Analysis of GPCR Ligand Engagement” (Molecules, 2021).

Assays:
Assay type in all cases: binding
[1] = target: T1, AGTR1 (Homo sapiens, UniProt P30556); assay: NanoBRET screen HiBiT-AGTR1 in HEK293
T1 construct: purchased Promega (in-house HiBiT-GPCR construct library, NanoBRET)
T1 sequence (P30556 1-359): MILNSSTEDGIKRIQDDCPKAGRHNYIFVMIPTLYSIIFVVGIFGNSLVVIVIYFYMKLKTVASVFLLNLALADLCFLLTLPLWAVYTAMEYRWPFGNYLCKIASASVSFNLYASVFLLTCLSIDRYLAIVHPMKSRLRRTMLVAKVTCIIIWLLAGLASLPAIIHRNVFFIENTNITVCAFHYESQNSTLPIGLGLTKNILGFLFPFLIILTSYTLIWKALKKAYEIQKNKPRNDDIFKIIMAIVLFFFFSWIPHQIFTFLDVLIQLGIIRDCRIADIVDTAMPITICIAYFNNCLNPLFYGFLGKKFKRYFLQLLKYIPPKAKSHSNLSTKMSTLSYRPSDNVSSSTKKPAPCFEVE
Protocol: (§1) Each tracer candidate was screened across the entire library of HiBiT-GPCR constructs using NanoBRET as the detection modality. As depicted in Figure 4A, the specificity of interactions was evaluated through decrease in BRET due to competitive displacement of a bound tracer by excess parental compound. Each tracer was analyzed for binding to each HiBiT-GPCR fusion in the absence and in the presence of competing parental compound. Briefly, HEK293 cells were transfected with HiBiT-GPCR constructs diluted into promoterless DNA to reduce expression and maximize translocation to the cell surface. Each tracer candidate was then screened at concentrations of 1 μM and 0.1 μM across cells expressing these fusions. Cells were treated for 1.5 h with tracer either alone or in the presence of 20 μM competing parental compound (i.e., control). BRET was measured upon addition of purified LgBiT and subsequent complementation with HiBiT genetically fused to a GPCR. The specificity of interactions was assessed through a decrease in BRET signal due to competitive displacement of the bound tracer. To further gauge the robustness of these interactions, the fold response over the control (i.e., BRETtracer/BRETcontrol) was calculated. We chose a 1.5-fold response, which translates to ≥7-fold signal over noise as the minimal threshold required to score an interaction as positive. […]. Below we highlight the screening results obtained for our exemplary fluorescent tracers based on Clozapine, Amitriptyline and AZD1283.
(§2) HiBiT-GPCR DNA constructs were diluted in 10 mM Tris pH 8 to a final concentration of 0.01 μg/μL, arrayed in 96-well plates and stored at −20 °C. For transfection, HEK293 cells were suspended in Opti-MEM (without phenol red) supplemented with 2% fetal bovine serum (Seradigm) and 100 units/mL penicillin–streptomycin (Gibco) at a final concentration of 220,000 cells/mL and dispensed into white 96-well plates at 90 μL/well. Subsequent transfections and screens were carried using an Agilent Bravo Automated Liquid Handling Platform. First, the 96-well HiBiT DNA arrays were diluted 25-fold in Opti-MEM (without serum or phenol red) to a final concentration of 0.0004 μg/μL and 20 μL of the diluted DNAs were transferred into new 96-well plates. Next, promoterless carrier DNA (1 μg/μL) was diluted 25-fold (0.04 μg/μL) and then dispensed into the diluted arrays at 20 μL/well. Following brief mixing, Viafect transfection reagent (Promega) diluted 16-fold into Opti-MEM was dispensed into the plates at 40 μL/well. After mixing by pipetting, plates were incubated for 10 min on the pipetting station deck. The DNA-transfection reagent complexes were then added to plates containing cells. To facilitate the screen, 10 μL of DNA-transfection reagent complexes were added in duplicates to the top 4 and bottom 4 rows, resulting in two identical 48-well arrays per plate. Plates with transfected cells were incubated for 18–20 h at 37 °C/5% CO2. A screen of each tracer across the entire library using two different concentrations requires duplicate plates of transfected cells. Depending on the number of tracers being screened, transfections can be scaled up using the same ratios. The next day, for each tracer, four 20× screening solutions in tracer dilution buffer (Promega) were prepared: two duplicates at final concentration of 20 μM and two duplicates at a final concentration of 2 μM. A competing unmodified compound was added to one of each duplicate at a final concentration of 400 μM. The four resulting solutions were diluted 4-fold in Opti-MEM without serum or phenol red to generate 5× solutions (5 µM and 0.5 µM tracer +/− 100 μM competing compound). To screen the library, a BioTek MultiFlo FX liquid dispenser was used to dispense 22.5 µL of tracer solution to the top 4 rows and 22.5 µL tracer + competing compound solution to the 4 bottom rows. Plates were briefly mixed on an orbital shaker and incubated for 1.5 h at room temperature. […]

[2] = target: T2, OXER1 (Homo sapiens, UniProt Q8TDS5); assay: NanoBRET screen HiBiT-OXER1 in HEK293; conditions: OXER1
T2 construct: purchased Promega (in-house HiBiT-GPCR construct library, NanoBRET)
Protocol: as §1, §2

[3] = target: T3, P2RY6 (Homo sapiens, UniProt Q15077); assay: NanoBRET screen HiBiT-P2RY6 in HEK293
T3 construct: purchased Promega (in-house HiBiT-GPCR construct library, NanoBRET)
Protocol: as §1, §2

[4] = target: T4, FPR3 (Homo sapiens, UniProt P25089); assay: NanoBRET screen HiBiT-FPR3 in HEK293
T4 construct: purchased Promega (in-house HiBiT-GPCR construct library, NanoBRET)
T4 sequence (P25089 1-353): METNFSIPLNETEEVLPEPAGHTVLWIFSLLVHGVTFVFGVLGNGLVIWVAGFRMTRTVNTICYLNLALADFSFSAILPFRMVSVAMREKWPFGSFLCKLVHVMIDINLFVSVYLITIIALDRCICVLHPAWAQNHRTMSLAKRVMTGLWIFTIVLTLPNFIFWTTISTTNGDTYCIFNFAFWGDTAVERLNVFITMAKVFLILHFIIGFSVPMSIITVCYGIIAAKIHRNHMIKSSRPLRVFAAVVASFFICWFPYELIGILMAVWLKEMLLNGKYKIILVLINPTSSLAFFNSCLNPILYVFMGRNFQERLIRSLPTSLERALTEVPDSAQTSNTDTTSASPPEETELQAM
Protocol: as §1, §2

[5] = target: T5, NPY2R (Homo sapiens, UniProt P49146); assay: NanoBRET screen HiBiT-NPY2R in HEK293
T5 construct: purchased Promega (in-house HiBiT-GPCR construct library, NanoBRET)
T5 sequence (P49146 1-381): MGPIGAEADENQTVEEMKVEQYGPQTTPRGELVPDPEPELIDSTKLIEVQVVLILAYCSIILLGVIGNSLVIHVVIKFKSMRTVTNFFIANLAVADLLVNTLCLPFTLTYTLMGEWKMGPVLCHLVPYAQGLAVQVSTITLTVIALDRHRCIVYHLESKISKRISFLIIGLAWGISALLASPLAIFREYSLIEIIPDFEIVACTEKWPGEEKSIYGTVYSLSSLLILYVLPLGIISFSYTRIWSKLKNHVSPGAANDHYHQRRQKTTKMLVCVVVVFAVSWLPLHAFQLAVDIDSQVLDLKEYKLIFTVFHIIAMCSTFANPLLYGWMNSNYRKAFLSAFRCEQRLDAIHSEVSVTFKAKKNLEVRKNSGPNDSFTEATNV
Protocol: as §1, §2

[6] = target: T6, MC3R (Homo sapiens, UniProt P41968); assay: NanoBRET screen HiBiT-MC3R in HEK293; conditions: MC3R
T6 construct: purchased Promega (in-house HiBiT-GPCR construct library, NanoBRET)
Protocol: as §1, §2

T3 sequence (Q15077 whole entry): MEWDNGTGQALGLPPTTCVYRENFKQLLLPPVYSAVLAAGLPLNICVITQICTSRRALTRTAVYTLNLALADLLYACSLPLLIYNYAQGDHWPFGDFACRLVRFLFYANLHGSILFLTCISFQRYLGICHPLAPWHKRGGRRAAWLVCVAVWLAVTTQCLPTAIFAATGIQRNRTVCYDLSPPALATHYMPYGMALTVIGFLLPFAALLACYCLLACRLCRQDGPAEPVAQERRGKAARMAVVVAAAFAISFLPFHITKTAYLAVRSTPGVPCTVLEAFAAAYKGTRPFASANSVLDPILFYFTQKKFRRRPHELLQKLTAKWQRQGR
T2 sequence (Q8TDS5 whole entry): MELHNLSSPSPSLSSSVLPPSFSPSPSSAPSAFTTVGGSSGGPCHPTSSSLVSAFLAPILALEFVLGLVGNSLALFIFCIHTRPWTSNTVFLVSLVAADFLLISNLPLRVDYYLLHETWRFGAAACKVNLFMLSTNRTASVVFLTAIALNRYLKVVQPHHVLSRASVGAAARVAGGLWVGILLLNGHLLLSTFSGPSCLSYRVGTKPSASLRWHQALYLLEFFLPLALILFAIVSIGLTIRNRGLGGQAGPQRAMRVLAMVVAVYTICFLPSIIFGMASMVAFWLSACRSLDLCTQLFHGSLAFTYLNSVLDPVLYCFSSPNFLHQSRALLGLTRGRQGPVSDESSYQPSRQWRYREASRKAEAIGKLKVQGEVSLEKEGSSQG
T6 sequence (P41968 whole entry): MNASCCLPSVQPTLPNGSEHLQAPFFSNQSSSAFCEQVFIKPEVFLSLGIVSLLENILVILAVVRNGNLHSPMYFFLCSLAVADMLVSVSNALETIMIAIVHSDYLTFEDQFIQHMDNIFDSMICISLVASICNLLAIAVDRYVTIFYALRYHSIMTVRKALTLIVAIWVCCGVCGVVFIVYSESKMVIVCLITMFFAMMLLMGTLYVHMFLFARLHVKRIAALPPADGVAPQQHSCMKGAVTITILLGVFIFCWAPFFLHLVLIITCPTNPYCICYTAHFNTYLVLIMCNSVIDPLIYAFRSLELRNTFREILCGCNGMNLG

SMILES	NanoBRET Fold Response ([1]; AGTR1, tracer 0.1μM)	NanoBRET Fold Response ([1]; AGTR1, tracer 1μM)	NanoBRET Fold Response ([2]; tracer 0.1μM)	NanoBRET Fold Response ([2]; tracer 1μM)	NanoBRET Fold Response ([3]; P2RY6, tracer 0.1μM)	NanoBRET Fold Response ([3]; P2RY6, tracer 1μM)	NanoBRET Fold Response ([4]; FPR3, tracer 0.1μM)	NanoBRET Fold Response ([4]; FPR3, tracer 1μM)	NanoBRET Fold Response ([5]; NPY2R, tracer 0.1μM)	NanoBRET Fold Response ([5]; NPY2R, tracer 1μM)	NanoBRET Fold Response ([6]; tracer 0.1μM)	NanoBRET Fold Response ([6]; tracer 1μM)	other results
O=C(CCOCCOCCOCCOCCNC(=O)CCc1ccc2n1[B-](F)(F)[N+]1=C(c3ccc[nH]3)C=CC1=C2)NCCCN1CCN(C2=Nc3ccccc3Oc3ccc(Cl)cc32)CC1 [Loxapine-a-2-NB590]	0.96	1.08	0.93	1.09	1.26	0.94	1.02	1.07	1.02	1.17	1.00	1.00	
CCCn1c(=O)c2[nH]c(-c3ccc(OCC(=O)NCCNC(=O)CCOCCNC(=O)c4ccc(CNC(=O)CCc5ccc6n5[B-](F)(F)[N+]5=C(c7ccc[nH]7)C=CC5=C6)cc4)cc3)nc2n(CCC)c1=O [XAC-3-NB590]	1.24	1.19	1.04	0.96	1.06	1.12	0.78	1.04	0.93	1.03	1.04	1.10	
CN(C)CCC=C1c2ccccc2CCc2ccc(C(=O)NCCNC(=O)CCOCCOCCOCCOCCNC(=O)CCc3ccc4n3[B-](F)(F)[N+]3=C(c5ccc[nH]5)C=CC3=C4)cc21 [Amitriptyline-a-2-NB590]													NanoBRET Fold Response ([1]; tracer at 0.1μM): 1.04; NanoBRET Fold Response ([1]; tracer at 1μM): 1.00; NanoBRET Fold Response ([3]; tracer at 0.1μM): 1.00; NanoBRET Fold Response ([3]; tracer at 1μM): 0.94; NanoBRET Fold Response ([4]; tracer at 0.1μM): 0.96; NanoBRET Fold Response ([4]; tracer at 1μM): 1.07; NanoBRET Fold Response ([5]; tracer at 0.1μM): 0.99; NanoBRET Fold Response ([5]; tracer at 1μM): 0.98
COc1ccccc1N1CCN(CCCCN2C(=O)c3ccc(CNC(=O)CCOCCOCCOCCOCCNC(=O)CCc4ccc5n4[B-](F)(F)[N+]4=C(c6ccc[nH]6)C=CC4=C5)cc3C2=O)CC1 [NAN-190-2-NB590]	1.04	1.11	0.95		0.96	1.17	1.00	0.74	1.00	0.92	1.03	1.00	
O=C(CCc1ccc2n1[B-](F)(F)[N+]1=C(c3ccc[nH]3)C=CC1=C2)NCc1ccc(C(=O)NCCOCCOCCNCC(O)COc2cccc3ccccc23)cc1 (centres unmarked) [Propranolol-3-NB590]													NanoBRET Fold Response ([1]; AGTR1, 0.1μM): 1.04; NanoBRET Fold Response ([1]; AGTR1, 1μM): 1.07; NanoBRET Fold Response ([2]; 0.1μM): 1.09; NanoBRET Fold Response ([2]; 1μM): 1.00; NanoBRET Fold Response ([3]; P2RY6, 0.1μM): 1.07; NanoBRET Fold Response ([3]; P2RY6, 1μM): 0.96; NanoBRET Fold Response ([4]; FPR3, 0.1μM): 1.03; NanoBRET Fold Response ([4]; FPR3, 1μM): 1.03; NanoBRET Fold Response ([5]; NPY2R, 0.1μM): 1.02; NanoBRET Fold Response ([5]; NPY2R, 1μM): 1.00; NanoBRET Fold Response ([6]; 0.1μM): 1.05; NanoBRET Fold Response ([6]; 1μM): 0.99
COc1ccccc1N1CCN(CCCCN2C(=O)c3ccc(CNC(=O)CCOCCNC(=O)c4ccc(CNC(=O)CCc5ccc6n5[B-](F)(F)[N+]5=C(c7ccc[nH]7)C=CC5=C6)cc4)cc3C2=O)CC1 [NAN-190-3-NB590]	0.92	1.04	1.34	0.63	1.10	0.91	1.28	0.99	1.05	1.07	1.10	0.95	
CN(CCC=C1c2ccccc2CCc2ccccc21)C(=O)CCOCCOCCOCCOCCNC(=O)CCc1ccc2n1[B-](F)(F)[N+]1=C(c3ccc[nH]3)C=CC1=C2 [Amitriptyline-e-2-NB590]													NanoBRET Fold Response ([1]; tracer at 1μM): 1.02
